PubChem BioAssay AID192 (DTP/NCI, 2004)
Values joined by “and” are separate entries in the source; they are usually repeats but may differ in a detail not shown here. Equal values may be shown once. Inconclusive results and toxic doses are left out.

System: BDF1 mice, B16 melanoma ip, median survival T/C
Assay: NCI In Vivo Anticancer Drug Screen. Data for tumor model B16 Melanoma (intraperitoneal) in B6D2F1 (BDF1) mice
Conditions: endpoint: median survival time, higher = longer survival
Procedure, shortened: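 Each result divides a survival or tumor-size measurement in the compound-treated group by the same measurement in the vehicle group.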

[1] = dose: 25.0 mg/kg/injection, schedule: Q01DX009 (ip), vehicle: saline with Tween-80
[2] = dose: 50.0 mg/kg/injection, schedule: Q01DX009 (ip), vehicle: saline with Tween-80
[3] = dose: 100.0 mg/kg/injection, schedule: Q01DX009 (ip), vehicle: Klucel (hydroxypropylcellulose) (HPC)
[4] = dose: 100.0 mg/kg/injection, schedule: Q01DX009 (ip), vehicle: saline with Tween-80
[5] = dose: 12.5 mg/kg/injection, schedule: Q01DX009 (ip), vehicle: saline with Tween-80
[6] = dose: 25.0 mg/kg/injection, schedule: Q01DX009 (ip), vehicle: Klucel (hydroxypropylcellulose) (HPC)
[7] = dose: 50.0 mg/kg/injection, schedule: Q01DX009 (ip), vehicle: Klucel (hydroxypropylcellulose) (HPC)
[8] = dose: 200.0 mg/kg/injection, schedule: Q01DX009 (ip), vehicle: Klucel (hydroxypropylcellulose) (HPC)
[9] = dose: 12.5 mg/kg/injection, schedule: Q01DX009 (ip), vehicle: saline
[10] = dose: 200.0 mg/kg/injection, schedule: Q01DX009 (ip), vehicle: saline with Tween-80
[11] = dose: 25.0 mg/kg/injection, schedule: Q01DX009 (ip), vehicle: saline
[12] = dose: 50.0 mg/kg/injection, schedule: Q01DX009 (ip), vehicle: saline
[13] = dose: 25.0 mg/kg/injection, schedule: Q04DX003 (ip), vehicle: saline with Tween-80
[14] = dose: 50.0 mg/kg/injection, schedule: Q04DX003 (ip), vehicle: saline with Tween-80
[15] = dose: 100.0 mg/kg/injection, schedule: Q04DX003 (ip), vehicle: saline with Tween-80

With `COC1C(O)C(C)OC(OC2C(Oc3cccc4c(O)c5c(=O)oc6ccc(C)c7c(=O)oc(c34)c5c67)OC(C)C(O)C2O)C1O` (configuration not stated) the T/C (dose: 16.0 mg/kg/injection, schedule: Q04DX003 (ip), vehicle: saline with Tween-80) was 107 % of control, the T/C [1] was 183 % of control and the T/C (dose: 32.0 mg/kg/injection, schedule: Q04DX003 (ip), vehicle: saline with Tween-80) was 101 % of control. For the same molecule, the T/C (dose: 50.0 mg/kg/injection, schedule: Q01DX009 (ip), vehicle: carboxymethylcellulose (CMC)) was 179 % of control, the T/C [2] was 199 % of control and the T/C (dose: 64.0 mg/kg/injection, schedule: Q04DX003 (ip), vehicle: saline with Tween-80) was 122 % of control. For the same molecule, the T/C [3] was 119 % of control, the T/C (dose: 100.0 mg/kg/injection, schedule: Q01DX009 (ip), vehicle: carboxymethylcellulose (CMC)) was 206 % of control and the T/C [4] was 185 % of control. The T/C (dose: 128.0 mg/kg/injection, schedule: Q04DX003 (ip), vehicle: saline with Tween-80) was 119 % of control.
`O=C(O)C(/C=C/c1ccccc1)c1ccccc1` (configuration not stated) was tested, and the T/C [4] was 95 % of control and the T/C (dose: 400.0 mg/kg/injection, schedule: Q01DX009 (ip), vehicle: saline with Tween-80) was 105 % of control.
With `CNC(=O)OCC(Cl)(Cl)Cl` the T/C (dose: 75.0 mg/kg/injection, schedule: Q01DX009 (ip), vehicle: Klucel (hydroxypropylcellulose) (HPC)) was 102 % of control, the T/C (dose: 150.0 mg/kg/injection, schedule: Q01DX009 (ip), vehicle: Klucel (hydroxypropylcellulose) (HPC)) was 114 % of control and the T/C (dose: 300.0 mg/kg/injection, schedule: Q01DX009 (ip), vehicle: Klucel (hydroxypropylcellulose) (HPC)) was 102 % of control.
For `COc1ccc(CCN2CCCC2C(=O)O)cc1OC` (configuration not stated), the T/C (dose: 100.0 mg/kg/injection, schedule: Q04DX003 (ip), vehicle: saline) was 100 % of control, the T/C (dose: 200.0 mg/kg/injection, schedule: Q04DX003 (ip), vehicle: saline) was 105 % of control and the T/C (dose: 400.0 mg/kg/injection, schedule: Q04DX003 (ip), vehicle: saline) was 96 % of control.
For `BrC[P+](CBr)(CBr)CBr`, the T/C [5] was 100 % of control, the T/C [1] was 105 % of control and the T/C [2] was 104 % of control. The T/C [4] was 89 % of control.
With `CC12CC(C(=O)O)C3(O)CC(C)(C1)CC(C)(C2)C3` (configuration not stated) (tested in a mixture with another compound) the T/C (dose: 12.5 mg/kg/injection, schedule: Q01DX009 (ip), vehicle: Klucel (hydroxypropylcellulose) (HPC)) was 97 % of control and 101 % of control, the T/C [6] was 93 % of control and 107 % of control and the T/C [7] was 94 % of control and 96 % of control. The T/C [3] was 96 % of control and 103 % of control and the T/C [8] was 94 % of control and 98 % of control.
`O=c1[nH]c2ccccc2c2cc3ccccc3cc12` was tested, and the T/C (dose: 6.25 mg/kg/injection, schedule: Q01DX009 (ip), vehicle: saline) was 94 % of control and the T/C [9] was 86 % of control.
`CSc1nc(N)nc2c1ncn2C1OC(CO)C(O)C1O` (configuration not stated) was tested, and the T/C (dose: 100.0 mg/kg/injection, schedule: Q01DX009 (ip), vehicle: suspension in saline) was 115 % of control and the T/C (dose: 200.0 mg/kg/injection, schedule: Q01DX009 (ip), vehicle: suspension in saline) was 110 % of control.
`C=CC=O` was tested, and the T/C (dose: 0.45 mg/kg/injection, schedule: Q01DX009 (ip), vehicle: saline) was 95 % of control, the T/C (dose: 0.9 mg/kg/injection, schedule: Q01DX009 (ip), vehicle: saline) was 88 % of control and the T/C (dose: 1.8 mg/kg/injection, schedule: Q01DX009 (ip), vehicle: saline) was 90 % of control.
In the case of `CNC(=S)N/N=C/c1ccc([N+](=O)[O-])s1`, the T/C [2] is reported as 90 % of control, the T/C [4] is reported as 92 % of control and the T/C [10] is reported as 92 % of control.
For `CN(C)C(=O)c1cccc(NC(=O)NCc2cccc(N3C(N)=NC(N)=NC3(C)C)c2)c1`, the T/C [9] was 107 % of control, the T/C [11] was 117 % of control and the T/C [12] was 102 % of control.
`CC1OC(O[C@H]2/C=C/C=C/C=C/C=C/C=C/C=C/C=C/[C@H](C)[C@@H](O)[C@@H](C)[C@H](C)OC(=O)C[C@H](O)C[C@H](O)CC[C@@H](O)[C@H](O)C[C@H](O)C[C@]3(O)C[C@H](O)[C@@H](C(=O)O)[C@H](C2)O3)C(O)C(N)C1O` (some centres not stated) was tested, and the T/C (dose: 1.0 mg/kg/injection, schedule: Q01DX009 (ip), vehicle: saline) was 102 % of control and 124 % of control, the T/C (dose: 2.0 mg/kg/injection, schedule: Q01DX009 (ip), vehicle: saline) was 106 % of control and 113 % of control and the T/C (dose: 4.0 mg/kg/injection, schedule: Q01DX009 (ip), vehicle: saline) was 97 % of control and 116 % of control. The T/C (dose: 8.0 mg/kg/injection, schedule: Q01DX009 (ip), vehicle: saline) was 92 % of control and 102 % of control and the T/C (dose: 16.0 mg/kg/injection, schedule: Q01DX009 (ip), vehicle: saline) was 88 % of control and 98 % of control.
With `CC(=O)OCC(CCC(C)C)=C(C)C` the T/C [13] was 104 % of control, the T/C [14] was 104 % of control and the T/C [4] was 97 % of control. The T/C [15] was 86 % of control and 97 % of control and the T/C [10] was 104 % of control.
`NC(=S)N/N=C/c1ccc(O)cn1` was tested, and the T/C (dose: 9.4 mg/kg/injection, schedule: Q01DX009 (ip), vehicle: saline with Tween-80) was 103 % of control, the T/C [9] was 108 % of control and the T/C (dose: 18.8 mg/kg/injection, schedule: Q01DX009 (ip), vehicle: saline with Tween-80) was 102 % of control and 119 % of control and 121 % of control. The T/C [11] was 110 % of control, the T/C (dose: 37.5 mg/kg/injection, schedule: Q01DX009 (ip), vehicle: saline with Tween-80) was 109 % of control and 111 % of control and 120 % of control and the T/C [12] was 113 % of control and 122 % of control. For the same molecule, the T/C (dose: 75.0 mg/kg/injection, schedule: Q01DX009 (ip), vehicle: saline with Tween-80) was 114 % of control and 121 % of control and 124 % of control, the T/C (dose: 100.0 mg/kg/injection, schedule: Q01DX009 (ip), vehicle: saline) was 115 % of control and 120 % of control and the T/C (dose: 150.0 mg/kg/injection, schedule: Q01DX009 (ip), vehicle: saline with Tween-80) was 105 % of control and 115 % of control.
With `O=C(NNCc1ccccc1)C(O)C(O)C(O)CO` (configuration not stated) the T/C [6] was 95 % of control, the T/C [7] was 95 % of control and the T/C [3] was 92 % of control. For the same molecule, the T/C [8] was 100 % of control and the T/C (dose: 400.0 mg/kg/injection, schedule: Q01DX009 (ip), vehicle: Klucel (hydroxypropylcellulose) (HPC)) was 95 % of control.
For `CC[CH2][Pb]([CH2]CC)([CH2]CC)[N]1C(=O)c2ccccc2C1=O`, the T/C (dose: 3.12 mg/kg/injection, schedule: Q01DX009 (ip), vehicle: Klucel (hydroxypropylcellulose) (HPC)) was 109 % of control and the T/C (dose: 6.25 mg/kg/injection, schedule: Q01DX009 (ip), vehicle: Klucel (hydroxypropylcellulose) (HPC)) was 101 % of control.
For `CN1CCN(Cc2nc3cccc4c3c([n+]2[O-])-c2ccccc2-4)CC1`, the T/C [5] was 101 % of control, the T/C [1] was 95 % of control and the T/C [2] was 105 % of control. For the same molecule, the T/C [4] was 112 % of control and the T/C [10] was 116 % of control.
`CCCC(=O)OCc1ccc(Cl)c(Cl)c1` was tested, and the T/C (dose: 16.5 mg/kg/injection, schedule: Q04DX003 (ip), vehicle: saline with Tween-80) was 91 % of control, the T/C [1] was 93 % of control and the T/C [13] was 102 % of control. For the same molecule, the T/C (dose: 37.5 mg/kg/injection, schedule: Q04DX003 (ip), vehicle: saline with Tween-80) was 102 % of control, the T/C [2] was 97 % of control and the T/C [14] was 118 % of control. The T/C [4] was 100 % of control and the T/C [15] was 123 % of control.
For `CC(=O)OC1=C(c2ccccc2)C(=O)c2ccccc21`, the T/C (dose: 25.0 mg/kg/injection, schedule: Q04DX003 (ip), vehicle: Klucel (hydroxypropylcellulose) (HPC)) was 86 % of control, the T/C (dose: 50.0 mg/kg/injection, schedule: Q04DX003 (ip), vehicle: Klucel (hydroxypropylcellulose) (HPC)) was 86 % of control and the T/C (dose: 100.0 mg/kg/injection, schedule: Q04DX003 (ip), vehicle: Klucel (hydroxypropylcellulose) (HPC)) was 86 % of control.
With `CC(NC(=O)OC(C)(C)C)C(=O)ON1C(=O)CCC1=O` (configuration not stated) the T/C [2] was 102 % of control and the T/C [4] was 92 % of control.
With `CCCCCC(O)C1C(=O)OC(C)C(O)/C=C/C=C/C=C/C=C\C=C(\C)C(O)CC(O)CC(O)CC(O)CC(O)CC(O)CC1O` (configuration not stated) the T/C (dose: 2.5 mg/kg/injection, schedule: Q01DX009 (ip), vehicle: saline) was 120 % of control, the T/C (dose: 5.0 mg/kg/injection, schedule: Q01DX009 (ip), vehicle: saline) was 97 % of control and the T/C (dose: 10.0 mg/kg/injection, schedule: Q01DX009 (ip), vehicle: saline) was 88 % of control.
